From patent US11472812B2, “Anti-cancer compounds targeting Ral GTPases and methods of using the same” (The Regents of the University of Colorado, a body corporate, priority 2014, dated 2022) come the findings set out here.

Data set [1] relates to H2122 human lung cancer cells. Briefly: Cellular uptake, LC/MS-MS of cell lysates. It is filed as in vitro ADME. The conditions noted are these: 10 μM, 1-60 min. On the procedure: To quantitate how well the test compounds get into cells, H2122 human lung cancer cells were seeded at 3×10^5 cells per well in 6-well plates and let sit for 16 h. Compounds (10 μM) were individually dosed in triplicate; cells were then collected into 500 μl ice-cold ACN:MeOH:H2O (1:1:1) at different time points (1, 5, 15, 30 and 60 min). Drug concentrations in cell lysates were then determined using LC/MS-MS methods as described with respect to the pharmacokinetic and pharmacodynamic studies in mice, described in detail in Example 5, below.

The test system of data set [2] is H2122 human lung cancer cells. As to the kind of experiment: H2122 xenograft tumor growth. Particulars: i.p. daily except weekends, initiated 24 h after inoculation; RBC8 50 mg/kg/d; BQU57 and BQU85 5, 10, 20, and 50 mg/kg/d. It is filed as in vivo, nude mice. On the procedure:
We next determined compound entry into tumor tissue. To do so, athymic nude mice (Ncr nu/nu; National Cancer Institute, Fredrick, Md.) were received at 5 to 6 weeks of age and were allowed to acclimate for 2 weeks in sterile micro isolator cages with constant temperature and humidity. Mice had free access to food and water. H2122 cells in log-phase growth were harvested on the day of use. Cells were suspended in un-supplemented RPMI 1640 medium and 0.1 mL (2×10^5 cells) was injected s.c. four sites per mice. For H358 xenografts, cells (5×10^6) were mixed with matrigel (20% final concentration) and 0.1 mL was inoculated s.c. per site. After cell inoculation, mice were monitored daily, weighed twice weekly and caliper measurements begun when tumors visible. Tumor volume was calculated by (L×W2)/2, where L is longer measurement of tumor and W is the smaller tumor measurement. Drug treatment started the day after inoculation. Compounds were dissolved in DMSO and injected i.p. daily except weekends at 10/20/50 mg/kg. […] The effect of the Ral inhibitors on xenograft tumor growth was then tested in nude mice. Mice were inoculated subcutaneously with H2122 human lung cancer cells and treated intraperitoneally with 50 mg/kg/d (except weekends) of RBC8 24 h post inoculation.

The structures appear in SMILES notation. Entries after “also recorded” stand apart in the source; their conditions may differ.

As for `Cn1nc(-c2ccccc2)c2c1OC(N)=C(C#N)C2c1ccc(OC(F)(F)F)cc1` (centres unmarked) [BQU85, 6-amino-1-methyl-3-phenyl-4-(4-(trifluoromethoxy)phenyl)-1,4-dihydropyrano[2,3-c]pyrazole-5-carbonitrile], the cellular uptake entry in data set [1] is recorded as “readily get into cells”. Besides, the “xenograft tumor growth inhibition” value in data set [2] is on record as “dose-dependent growth inhibition effects were observed; also recorded: inhibited xenograft tumor growth”.
